{"source": "patent US7018649B2", "about": "(Euro-Celtique, S.A., priority 2000, dated 2006)", "origin": "cited, not measured here", "key": {"[1]": {"test_system": "plasma-protein"}, "[2]": {"conditions": "in vivo"}, "[3]": {"test": "not given", "remark": "listed apart in the source"}}}
{"smiles": "CCOC(=O)C1=C(C)NC(C)=C(C(=O)OC)C1c1cccc(Cl)c1Cl", "note": "(racemic) [felodipine, 4-(2,3-dichlorophenyl)-1,4-dihydro-2,6-dimethyl-3,5-pyridinedicarboxylate]", "values": [{"measurement": "solubility in dichloromethane and ethanol", "setting": "dichloromethane and ethanol", "value": "freely soluble"}, {"measurement": "solubility in water", "setting": "water", "value": "not soluble"}, {"measurement": "plasma-protein bound", "setting": "[1]", "value": 99, "unit": "%"}, {"measurement": "most common adverse side effects", "setting": "[2]", "value": "peripheral edema and headaches"}, {"measurement": "time to mean peak concentrations", "setting": "[3]; after administration", "value": "2.5 to 5", "unit": "h"}, {"measurement": "excretion in the feces", "setting": "[3]; after metabolism", "value": 10, "unit": "%"}, {"measurement": "excretion in the urine", "setting": "[3]; after metabolism", "value": 70, "unit": "%"}, {"measurement": "onset of antihypertensive activity", "setting": "[3]; following administration", "value": "2 to 5", "unit": "h"}, {"measurement": "plasma concentration at steady state", "setting": "[3]; in vivo", "value": 2, "unit": "ng/mL"}, {"measurement": "bioavailability", "setting": "[3]; oral dose, gastrointestinal absorption", "value": "approximately 20%"}]}
